Measured values as given in US10758614B2, “Combination therapies targeting tumor-associated stroma or tumor cells and topoisomerase” (BIOMED VALLEY DISCOVERIES, INC., priority 2014, dated 2020).

B1: M830: TEM8 monoclonal antibody (hIgG1), VH SEQ ID NO:5, VL SEQ ID NO:6 (antibody, V domains shown)
VH: EVQLVESGGGVVQPGRSVRLSCAASGFTFSTYTMHWVRQAPGKGLEWVAIISNDGSNKYYADPVRGRFTISRDNSKNTLYLQMNSLRAEDTAVYYCVRGSSWYRGNWFDPWGQGTLVTVSS
VL: DIQMTQSPSSLSASVGDRVTIACRASQTISRYLNWYQQKPGKAPKLLIYAASSLQSGVSSRFSGSGSGTEFTLTISSLQPEDFATYFCQQTYSPPITFGQGTRLEIKR
modifications: TEM830 mAb VH; TEM830 mAb VL

Columns and labels:
MDA-MB231 tumors = details: 79-day study, endpoint 1500 mm^3; logrank
Protocol: Unless otherwise noted, female immunodeficient athymic nude mice (Crl:NU(Ncr)-Foxn/nu, Charles River) were used at nine weeks old with a body weight (BW) range of about 15 to about 30 grams on Day 1 of the study.
On the day of tumor implant, each test mouse was injected with cultured tumor cells, and tumor growth was monitored as the average size approached the target range. Tumors were measured in two dimensions using calipers, and volume was calculated using the formula: Tumor Volume (mm^3)=(w^2×l)/2 where w=width and l=length, in mm, of the tumor. Tumor weight was estimated with the assumption that 1 mg is equivalent to 1 mm^3 of tumor volume. For all therapeutic studies, mice were sorted into groups containing the same average size tumors prior to initiation of therapy. Controls
One group in each cohort received 1% vehicle IP three times per week to end, and served as the control group for calculation of % tumor growth delay (TGD).
Tumors were measured using calipers twice per week, and each animal was euthanized when its tumor reached the pre-determined tumor volume endpoint described for each experiment (usually 2000 mm^3) or on the final day, whichever came first. […] The time to endpoint (TTE) for analysis was calculated for each mouse by the following equation: TTE=[ log10(endpoint volume)−b]/m where TTE is expressed in days, endpoint volume is expressed in mm^3, b is the intercept, and m is the slope of the line obtained by linear regression of a log-transformed tumor growth data set. […] The calculated TTE was usually less than the TP date, the day on which the animal was euthanized for determination of tumor size. […]
Treatment outcome was evaluated from TGD, defined as the increase in the median TTE in a treatment group compared to the control group: TGD=T−C, expressed in days, or as a percentage of the median TTE of the control group: % TGD=[(T−C)/C]×100 where: […]
Animals were weighed daily on Days 1-5, then twice per week until completion of the study. […] Group mean BW loss also was monitored as per protocol. […]

H460 cells = assay: M830 in the H460 non-small cell lung carcinoma xenograft model; type: in vivo, athymic nude mice; details: M830 with combination partner Paclitaxel
Protocol: Animals were monitored for regression responses.
Cultured H460 cells were harvested during exponential growth and resuspended in phosphate buffered saline at a concentration of 1×10^8 cells/mL. 1.0×10^7 tumor cells were injected subcutaneously into the flank of athymic nude mice.

Molecule | survival compared to controls (MDA-MB231 tumors) | regression (at Day 21) (H460 cells)
CC(=O)O[C@H]1C(=O)[C@@]2(C)[C@H]([C@H](OC(=O)c3ccccc3)[C@]3(O)C[C@H](OC(=O)[C@H](O)[C@@H](NC(=O)c4ccccc4)c4ccccc4)C(C)=C1C3(C)C)[C@]1(OC(C)=O)CO[C@@H]1C[C@@H]2O [paclitaxel] | statistically significant survival extensions | –
COc1cccc2c1C(=O)c1c(O)c3c(c(O)c1C2=O)C[C@@](O)(C(=O)CO)C[C@@H]3O[C@H]1C[C@H](N)[C@H](O)[C@H](C)O1 [Doxorubicin, doxorubicin] | statistically significant survival extensions | –
B1 | did not produce statistically significant survival benefit | (−61% regression)
